ChEMBL document CHEMBL1201862, “PubChem BioAssay data set” (2004)
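Interpolation was linear, between the two tested concentrations surrounding the appropriate level; five concentrations were tested over 48 hours in 96-well plates. GI50 = concentration required for 50% inhibition of growth.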 The source made the active and inactive calls. No stated cut-off is given here; in the data, active = GI50 up to about 1.1 µM and inactive = higher.

Key:
Experiment in all cases: inhibition of tumour cell growth, NCI panel, 48 h
ACHN = system: ACHN
SK-MEL-5 = system: SK-MEL-5
HCT-116 = system: HCT-116
M14 = system: M14
DU-145 = system: DU-145
UACC-62 = system: UACC-62
U-251 = system: U-251
SW-620 = system: SW-620
MDA-MB-435 = system: MDA-MB-435
T47D = system: T47D
MCF7 = system: MCF7
SF-295 = system: SF-295
EKVX = system: EKVX
NCI-H460 = system: NCI-H460
SF-268 = system: SF-268
KM12 = system: KM12
PC-3 = system: PC-3
A549 = system: A549
RPMI-8226 = system: RPMI-8226
NCI/ADR-RES = system: NCI/ADR-RES
SK-MEL-2 = system: SK-MEL-2
A498 = system: A498
CCRF-CEM = system: CCRF-CEM
SR = system: SR
RXF 393 = system: RXF 393
Malme-3M = system: Malme-3M
MDA-N = system: MDA-N
OVCAR-5 = system: OVCAR-5
OVCAR-8 = system: OVCAR-8
UO-31 = system: UO-31
NCI-H23 = system: NCI-H23
SF-539 = system: SF-539
SK-MEL-28 = system: SK-MEL-28
UACC-257 = system: UACC-257
HCC 2998 = system: HCC 2998
HOP-92 = system: HOP-92
HCT-15 = system: HCT-15
HOP-62 = system: HOP-62
TK-10 = system: TK-10
OVCAR-4 = system: OVCAR-4
SNB-75 = system: SNB-75
LOX IMVI = system: LOX IMVI
MDA-MB-231 = system: MDA-MB-231
HT-29 = system: HT-29
NCI-H226 = system: NCI-H226
CAKI-1 = system: CAKI-1
786-0 = system: 786-0
SN12C = system: SN12C
SK-OV-3 = system: SK-OV-3
K562 = system: K562
MOLT-4 = system: MOLT-4
Hs-578T = system: Hs-578T
COLO 205 = system: COLO 205
HL-60 = system: HL-60
OVCAR-3 = system: OVCAR-3
SNB-19 = system: SNB-19
IGROV-1 = system: IGROV-1
BT-549 = system: BT-549
NCI-H522 = system: NCI-H522

For `CCOc1cc(/C=N\O)cc(/C=N/O)c1O`, the GI50 (ACHN) was 22.7 µM (inactive), the GI50 (SK-MEL-5) was 17.7 µM (inactive) and the GI50 (HCT-116) was 38.5 µM (inactive). For the same molecule, the GI50 (M14) was 44 µM (inactive), the GI50 (DU-145) was 68.5 µM (inactive) and the GI50 (UACC-62) was 50.7 µM (inactive). The GI50 (U-251) was 25.6 µM (inactive), the GI50 (SW-620) was 34.6 µM (inactive) and the GI50 (MDA-MB-435) was 32.3 µM (inactive). For the same molecule, the GI50 (T47D) was 21.9 µM (inactive), the GI50 (MCF7) was 9.68 µM (inactive) and the GI50 (SF-295) was 38.3 µM (inactive). For the same molecule, the GI50 (EKVX) was 33.3 µM (inactive), the GI50 (NCI-H460) was 31.9 µM (inactive) and the GI50 (SF-268) was 22.6 µM (inactive). The GI50 (KM12) was 54.3 µM (inactive), the GI50 (PC-3) was 28.2 µM (inactive) and the GI50 (A549) was 29.5 µM (inactive). The GI50 (RPMI-8226) was 24.7 µM (inactive), the GI50 (NCI/ADR-RES) was 41.7 µM (inactive) and the GI50 (SK-MEL-2) was 18.1 µM (inactive). For the same molecule, the GI50 (A498) was 18 µM (inactive), the GI50 (CCRF-CEM) was 35.3 µM (inactive) and the GI50 (SR) was 29.3 µM (inactive). The GI50 (RXF 393) was 14.5 µM (inactive), the GI50 (Malme-3M) was 37.2 µM (inactive) and the GI50 (MDA-N) was 35.6 µM (inactive). The GI50 (OVCAR-5) was 50.6 µM (inactive), the GI50 (OVCAR-8) was 25.2 µM (inactive) and the GI50 (UO-31) was 1.2 µM (inactive). For the same molecule, the GI50 (NCI-H23) was 30 µM (inactive), the GI50 (SF-539) was 24 µM (inactive) and the GI50 (SK-MEL-28) was 22.8 µM (inactive). For the same molecule, the GI50 (UACC-257) was 47.2 µM (inactive), the GI50 (HCC 2998) was 56.5 µM (inactive) and the GI50 (HOP-92) was 23.8 µM (inactive). The GI50 (HCT-15) was 31.3 µM, the GI50 (HOP-62) was 37.1 µM (inactive) and the GI50 (TK-10) was > 100 µM (inactive). The GI50 (OVCAR-4) was 42.6 µM (inactive), the GI50 (SNB-75) was 23.1 µM (inactive) and the GI50 (LOX IMVI) was 22.2 µM (inactive). For the same molecule, the GI50 (MDA-MB-231) was 69.8 µM (inactive), the GI50 (HT-29) was 29.4 µM (inactive) and the GI50 (NCI-H226) was 37.9 µM (inactive). For the same molecule, the GI50 (CAKI-1) was 21.9 µM (inactive), the GI50 (786-0) was 49.4 µM (inactive) and the GI50 (SN12C) was 51.6 µM (inactive). The GI50 (SK-OV-3) was 59.4 µM (inactive), the GI50 (K562) was 61.5 µM (inactive) and the GI50 (MOLT-4) was 29.1 µM (inactive). For the same molecule, the GI50 (Hs-578T) was 31.3 µM (inactive), the GI50 (COLO 205) was 22.8 µM (inactive) and the GI50 (HL-60) was 18.1 µM (inactive). For the same molecule, the GI50 (OVCAR-3) was 31.1 µM (inactive) and the GI50 (SNB-19) was 39.2 µM (inactive).

With `c1ccc(-c2cn3nc(N4CCOCC4)sc3n2)cc1` the GI50 (ACHN) was > 100 µM (inactive), the GI50 (SK-MEL-5) was > 100 µM (inactive) and the GI50 (HCT-116) was > 100 µM (inactive). For the same molecule, the GI50 (M14) was > 100 µM (inactive), the GI50 (DU-145) was > 100 µM (inactive) and the GI50 (UACC-62) was > 100 µM (inactive). The GI50 (U-251) was 48.6 µM (inactive), the GI50 (SW-620) was > 100 µM (inactive) and the GI50 (MDA-MB-435) was > 100 µM (inactive). The GI50 (T47D) was 56.8 µM (inactive), the GI50 (MCF7) was > 100 µM (inactive) and the GI50 (SF-295) was > 100 µM (inactive). The GI50 (EKVX) was > 100 µM (inactive), the GI50 (NCI-H460) was 54.1 µM (inactive) and the GI50 (SF-268) was > 100 µM (inactive). For the same molecule, the GI50 (KM12) was > 100 µM (inactive), the GI50 (PC-3) was > 100 µM (inactive) and the GI50 (A549) was > 100 µM (inactive). The GI50 (RPMI-8226) was > 100 µM (inactive), the GI50 (NCI/ADR-RES) was > 100 µM (inactive) and the GI50 (IGROV-1) was 62.4 µM (inactive). For the same molecule, the GI50 (SK-MEL-2) was > 100 µM (inactive), the GI50 (CCRF-CEM) was > 100 µM (inactive) and the GI50 (RXF 393) was 83.6 µM (inactive). The GI50 (Malme-3M) was > 100 µM (inactive), the GI50 (BT-549) was > 100 µM (inactive) and the GI50 (OVCAR-5) was > 100 µM (inactive). For the same molecule, the GI50 (OVCAR-8) was 31.8 µM (inactive), the GI50 (UO-31) was > 100 µM (inactive) and the GI50 (NCI-H23) was > 100 µM (inactive). For the same molecule, the GI50 (SK-MEL-28) was > 100 µM (inactive), the GI50 (UACC-257) was > 100 µM (inactive) and the GI50 (NCI-H522) was > 100 µM (inactive). The GI50 (HCC 2998) was > 100 µM (inactive), the GI50 (HCT-15) was > 100 µM and the GI50 (HOP-62) was 53.7 µM (inactive). For the same molecule, the GI50 (TK-10) was > 100 µM (inactive), the GI50 (OVCAR-4) was 34 µM (inactive) and the GI50 (SNB-75) was 38.7 µM (inactive). For the same molecule, the GI50 (MDA-MB-231) was 85.9 µM (inactive), the GI50 (HT-29) was > 100 µM (inactive) and the GI50 (NCI-H226) was > 100 µM (inactive). For the same molecule, the GI50 (CAKI-1) was 16.6 µM (inactive), the GI50 (786-0) was 37.4 µM (inactive) and the GI50 (SN12C) was 8.49 µM (inactive). For the same molecule, the GI50 (SK-OV-3) was > 100 µM (inactive), the GI50 (K562) was > 100 µM (inactive) and the GI50 (MOLT-4) was > 100 µM (inactive). The GI50 (Hs-578T) was 60 µM (inactive), the GI50 (COLO 205) was > 100 µM (inactive) and the GI50 (HL-60) was > 100 µM (inactive). For the same molecule, the GI50 (OVCAR-3) was > 100 µM (inactive) and the GI50 (SNB-19) was > 100 µM (inactive).
